The values that follow come from patent US9346811B2, “6,7-dihydro-pyrazolo[1,5-a]pyrazin-4-ylamine derivatives useful as inhibitors of beta-secretase (BACE)” (JANSSEN PHARMACEUTICA NV, priority 2011, dated 2016).

In assay [1] the test system is Aβtotal produced and secreted into the medium of human neuroblastoma SKNBE2 cells. Description: Cellular αlisa assay in SKNBE2 cells, Aβtotal. The assay is classed as cell-based. The note with it: for IC50: Homo sapiens, SKNBE2, 18 h, read-out: Cellular αlisa assay in SKNBE2 cells Aβtotal pIC50 (converted). The procedure: (§1) Cellular αlisa Assay in SKNBE2 Cells
(§2) In two αlisa assays the levels of Aβtotal and Aβ42 produced and secreted into the medium of human neuroblastoma SKNBE2 cells are quantified. The assay is based on the human neuroblastoma SKNBE2 expressing the wild type Amyloid Precursor Protein (hAPP695). The compounds are diluted and added to these cells, incubated for 18 hours and then measurements of Aβ42 and Aβtotal are taken. Aβtotal and Aβ42 are measured by sandwich αlisa. αlisa is a sandwich assay using biotinylated antibody AbN/25 attached to streptavidin coated beads and antibody Ab4G8 or cAb42/26 conjugated acceptor beads for the detection of Aβtotal and Aβ42 respectively. In the presence of Aβtotal or Aβ42, the beads come into close proximity. The excitation of the Donor beads provokes the release of singlet oxygen molecules that triggers a cascade of energy transfer in the Acceptor beads, resulting in light emission. Light emission is measured after 1 hour incubation (excitation at […] and emission at 615 nm).
(§3) A best-fit curve is fitted by a minimum sum of squares method to the plot of % Controlmin versus compound concentration.

Assay [2] has as its target recombinant BACE1 protein (Homo sapiens, UniProt P56817). The experiment in a line: Biochemical FRET based assay. The note with it: recombinant BACE1 1 μg/ml, 120 min, pH 5.0; for IC50: read-out: Biochemical FRET based assay pIC50 (converted). An excerpt: Biochemical FRET Based Assay
This assay is a Fluorescence Resonance Energy Transfer Assay (FRET) based assay. The substrate for this assay is an APP derived 13 amino acids peptide that contains the ‘Swedish’ Lys-Met/Asn-Leu mutation of the amyloid precursor protein (APP) β-secretase cleavage site. This substrate also contains two fluorophores: (7-methoxycoumarin-4-yl)acetic acid (Mca) is a fluorescent donor with excitation wavelength at 320 nm and emission at 405 nm and 2,4-Dinitrophenyl (Dnp) is a proprietary quencher acceptor. […] Upon cleavage by BACE1, the fluorophore Mca is separated from the quenching group Dnp, restoring the full fluorescence yield of the donor. The increase in fluorescence is linearly related to the rate of proteolysis (Koike H et al. J. Biochem. 1999, 126, 235-242). Briefly in a 384-well format recombinant BACE1 protein in a final concentration of 1 μg/ml is incubated for 120 min at room temperature with 10 μm substrate in incubation buffer (40 mM Citrate buffer pH 5.0, 0.04% PEG, 4% DMSO) in the absence or presence of compound. Next the amount of proteolysis is directly measured by fluorescence measurement at T=0 and T=120 (excitation at 320 nm and emission at 405 nm).

Assay [3] relates to Aβ42 produced and secreted into the medium of human neuroblastoma SKNBE2 cells. The experiment in a line: Cellular αlisa assay in SKNBE2 cells, Aβ42. The assay is classed as cell-based. The note with it: for IC50: Homo sapiens, SKNBE2, 18 h, read-out: Cellular αlisa assay in SKNBE2 cells Aβ42 pIC50 (converted). The procedure:
as §1, §2, §3

The mark [4] stands for this setting: SKNBE2 cells expressing hAPP695, 18 hours incubation.

Molecules are shown by their SMILES. Where a name gives a salt, the structure may show the parent alone. Read-outs that look alike come from different tables or passages of the source.

Sequence of recombinant BACE1 protein (P56817 46-501): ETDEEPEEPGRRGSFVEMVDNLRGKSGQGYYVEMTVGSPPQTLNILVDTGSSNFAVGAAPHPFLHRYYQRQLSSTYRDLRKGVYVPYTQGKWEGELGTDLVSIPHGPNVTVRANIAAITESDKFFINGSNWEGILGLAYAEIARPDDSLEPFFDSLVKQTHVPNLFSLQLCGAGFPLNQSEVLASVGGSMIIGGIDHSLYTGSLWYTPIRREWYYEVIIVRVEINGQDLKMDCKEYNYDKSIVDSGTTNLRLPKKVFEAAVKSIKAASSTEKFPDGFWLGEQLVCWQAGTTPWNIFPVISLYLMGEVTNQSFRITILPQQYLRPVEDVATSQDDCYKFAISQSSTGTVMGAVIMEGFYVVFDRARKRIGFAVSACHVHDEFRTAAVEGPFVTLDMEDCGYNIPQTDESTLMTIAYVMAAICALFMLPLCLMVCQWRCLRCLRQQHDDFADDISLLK

As to `COc1cnc(C(=O)Nc2cccc(C3(C)Cn4nc(C(F)(F)F)cc4C(N)=N3)c2)cn1` (racemic) [Compound 30], in assay [1] (setting [4]), the “Cellular αlisa assay in SKNBE2 cells Aβtotal pIC50” value worked out at 7.45. The “Biochemical FRET based assay pIC50” value in assay [2] amounted to 6.77. Also, the “Cellular αlisa assay in SKNBE2 cells Aβ42 pIC50” value in assay [3] (setting [4]) came out at 7.43.
As to `Cc1nc(C(=O)Nc2ccc(F)c(C3(C)Cn4nc(C#N)cc4C(N)=N3)c2)co1` (stereo not drawn) [Compound 43], the “Cellular αlisa assay in SKNBE2 cells Aβtotal pIC50” value in assay [1] (setting [4]) came out at 8.70. Besides, the “Biochemical FRET based assay pIC50” value in assay [2] was determined as 7.53. Besides, in assay [3] (setting [4]), the “Cellular αlisa assay in SKNBE2 cells Aβ42 pIC50” value is reported as 8.72.
For the molecule `COc1cnc(C(=O)Nc2ccc(F)c(C3(C)Cn4ncc(Cl)c4C(N)=N3)c2)cn1` (stereo not drawn) [Compound 37], the “Cellular αlisa assay in SKNBE2 cells Aβtotal pIC50” value in assay [1] (setting [4]) was 6.07. Besides, the “Biochemical FRET based assay pIC50” value in assay [2] turned out to be 5.86. Besides, the “Cellular αlisa assay in SKNBE2 cells Aβ42 pIC50” value in assay [3] (setting [4]) came to 6.03.
For `Cc1nc(C(=O)Nc2ccc(F)c(C3(C)Cn4ncc(F)c4C(N)=N3)c2)c(C)o1` (stereo not drawn) [Compound 36], the “Cellular αlisa assay in SKNBE2 cells Aβtotal pIC50” value in assay [1] (setting [4]) turned out to be 7.53. For the same molecule, in assay [2], the “Biochemical FRET based assay pIC50” value is 7.04. The “Cellular αlisa assay in SKNBE2 cells Aβ42 pIC50” value in assay [3] (setting [4]) is 7.56.
As to `CC1(c2cccc(NC(=O)c3ncc(Cl)cc3Cl)c2)Cn2nccc2C(N)=N1` (single isomer, unassigned) [Compound 4, (R*)-3,5-dichloro-pyridine-2-carboxylic acid [3-(4-amino-6-methyl-6,7-dihydro-pyrazolo[1,5-a]pyrazin-6-yl)-phenyl]-amide], the “Cellular αlisa assay in SKNBE2 cells Aβtotal pIC50” value in assay [1] (setting [4]) was found to be 5.84. Moreover, the IC50 in assay [2] is 21400 nM. Also, in assay [3] (setting [4]), the “Cellular αlisa assay in SKNBE2 cells Aβ42 pIC50” value turned out to be 5.84.
`CC1(c2cccc(NC(=O)c3ccc(C#N)cn3)c2)Cn2ncc(Br)c2C(N)=N1` (racemic) [Compound 9, rac-5-cyano-pyridine-2-carboxylic acid [3-(4-amino-3-bromo-6-methyl-6,7-dihydro-pyrazolo[1,5-a]pyrazin-6-yl)-phenyl]-amide trifluorocetate salt]: the values for the IC50 in assay [1] (setting [4]), in assay [2] and in assay [3] (setting [4]) were 871 nM, 7940 nM and 1000 nM, respectively.
As for `C[C@@]1(c2cccc(-c3cncc(Cl)c3)c2)Cn2nccc2C(N)=N1` [Compound 1, (R)-6-[3-(5-chloro-pyridin-3-yl)-phenyl]-6-methyl-6,7-dihydro-pyrazolo[1,5-a]pyrazin-4-ylamine trifluoroacetate salt], the IC50 in assay [1] is 100 nM; in assay [2], 525 nM; in assay [3], 93.3 nM.
With `NC1=NC(c2cc(NC(=O)c3ccc(F)cn3)ccc2F)(C(F)F)Cn2nccc21` (single isomer, unassigned) [Compound 21, (S*)-5-fluoro-pyridine-2-carboxylic acid [3-(4-amino-6-difluoromethyl-6,7-dihydro-pyrazolo[1,5-a]pyrazin-6-yl)-4-fluoro-phenyl]-amide], in assay [1] (setting [4]), the “Cellular αlisa assay in SKNBE2 cells Aβtotal pIC50” value was under 5. For the same molecule, in assay [2], the IC50 is over 30200 nM. Further, in assay [3] (setting [4]), the “Cellular αlisa assay in SKNBE2 cells Aβ42 pIC50” value is under 5.
Turning to `COc1cnc(C(=O)Nc2ccc(F)c([C@]3(C)Cn4ncc(F)c4C(N)=N3)c2)cn1` [Compound 13, (R)-5-methoxy-pyrazine-2-carboxylic acid [3-(4-amino-3-fluoro-6-methyl-6,7-dihydro-pyrazolo[1,5-a]pyrazin-6-yl)-4-fluoro-phenyl]-amide], the IC50 in assay [1] (setting [4]) is 5.5 nM; in assay [2], 72.4 nM; in assay [3] (setting [4]), 6.76 nM.
Take `CC1(c2cc(NC(=O)c3ncc(Cl)cc3Cl)ccc2F)Cn2nccc2C(N)=N1` (racemic) [Compound 14, rac-3,5-dichloro-pyridine-2-carboxylic acid [3-(4-amino-6-methyl-6,7-dihydro-pyrazolo[1,5-a]pyrazin-6-yl)-4-fluoro-phenyl]-amide]: the values for the IC50 in assay [1] (setting [4]), in assay [2] and in assay [3] (setting [4]) were 1.17 nM, 35.5 nM and 1.35 nM, respectively.
Take `CC1(c2cc(NC(=O)c3ncc(Cl)cc3Cl)ccc2F)Cn2nccc2C(N)=N1` (single isomer, unassigned) [Compound 16, (S*)-3,5-dichloro-pyridine-2-carboxylic acid [3-(4-amino-6-methyl-6,7-dihydro-pyrazolo[1,5-a]pyrazin-6-yl)-4-fluoro-phenyl]-amide]: in assay [1] (setting [4]), the “Cellular αlisa assay in SKNBE2 cells Aβtotal pIC50” value amounted to 7.74. Also, in assay [2], the IC50 was 1050 nM. Further, the “Cellular αlisa assay in SKNBE2 cells Aβ42 pIC50” value in assay [3] (setting [4]) is on record as 7.66.
With `COc1cnc(C(=O)Nc2ccc(F)c(C3(C(F)F)Cn4nccc4C(N)=N3)c2)cn1` (racemic) [Compound 17, rac-5-methoxy-pyrazine-2-carboxylic acid [3-(4-amino-6-difluoromethyl-6,7-dihydro-pyrazolo[1,5-a]pyrazin-6-yl)-4-fluoro-phenyl]-amide], the IC50 in assay [1] (setting [4]) was 33.1 nM; in assay [2] it was 57.5 nM; in assay [3] (setting [4]) it was 39.8 nM.
Consider `CC1(c2cccc(NC(=O)c3ncc(Cl)cc3Cl)c2)Cn2nc(C(F)(F)F)cc2C(N)=N1` (single isomer, unassigned) [Compound 12, (S*)-3,5-dichloro-pyridine-2-carboxylic acid [3-(4-amino-6-methyl-2-trifluoromethyl-6,7-dihydro-pyrazolo[1,5-a]pyrazin-6-yl)-phenyl]-amide], for which the “Cellular αlisa assay in SKNBE2 cells Aβtotal pIC50” value in assay [1] (setting [4]) was 5.75. For the same molecule, the IC50 in assay [2] was 8710 nM. The “Cellular αlisa assay in SKNBE2 cells Aβ42 pIC50” value in assay [3] (setting [4]) was 5.64.
